These are literature values, as cited in the CATMoS acute toxicity set (Mansouri et al. 2021).

A short description of the data set: rat acute oral toxicity. As to conditions: in vivo. An excerpt: […]The data set underlying the modeling effort for this project was initially compiled by NICEATM and U.S. EPA’s CCTE. Briefly, LD50 data were collected from rat acute oral systemic toxicity tests, including limit tests, ranges/confidence intervals, and discrete LD50 values. The full data set included 21,200 LD50 entries for 15,688 substances. […] Data were reviewed to ensure that LD50 values with obvious errors in the extracted data such as unit conversion errors (e.g., comma and decimal separator misplacements) were either fixed or removed. After this review, 16,209 LD50 values remained. Many of the chemicals represented had multiple LD50 entries, requiring that a single representative value per Chemical Abstracts Service Registry Number (CASRN) identifier be defined to facilitate modeling efforts. Based on ATWG feedback and to define the representative LD50 as a protective value while accounting for the distribution across multiple LD50s, the median of the lowest quartile was computed using only discrete LD50 values (omitting limit test data and range and confidence interval data). A detailed summary of the data compilation is available online on the NICEATM webpage dedicated to the collaborative modeling project (NTP 2020).
[…][…] For categorical designations, limit test and range/confidence interval LD50 data were integrated wherever possible. As such, the number of chemicals with end point values/calls varies across the modeling end points (Table 3) based on whether chemicals had representative LD50 values and/or other data. If a chemical had both, the representative value was used to determine categorical calls rather than limit test data. Some data were useable only for certain end points and categories depending on the thresholds. For example, ranges that spanned multiple hazard categories were considered only for the binary (very toxic/nontoxic) end points and omitted from rendering a determination for hazard category assignment.
[…]The final data set comprising 11,992 chemicals was split into training and evaluation sets […], respectively. This process was performed semirandomly by ordering chemicals based on the five end points (categorical and continuous LD50 values) and partitioning every fourth record into the evaluation set accordingly. This approach was taken to ensure an equivalent distribution of the LD50 values and the different hazard categories between the training and the evaluation sets without supervised sampling of the chemicals based on structures (Figure 1A). The sources of the chemical structures were also kept equivalent between the two sets, with chemical structures obtained from DSSTox, being the highest quality, representing over 75% of each set (Figure 1B).
As to `OCCN1CCN(CCCN2c3ccccc3Sc3cc(Cl)cnc32)CC1`, the 50% lethal dose (LD50) – broadly, the dose expected to kill half of the subjects tested – is 657 mg/kg.

Regarding `N#Cc1cccnc1`, the LD50 is 1180 mg/kg.

Turning to `CNC(=O)ON=C1CSCCSC1`, the LD50 was 400 mg/kg.

Regarding `CC(C1=C(CCN(C)C)Cc2ccccc21)c1ccccn1` (stereo unspecified), the LD50 is 618 mg/kg.

On to `CCC(O)(COC(N)=O)c1ccccc1` (stereo unspecified), for which the LD50 is 607 mg/kg.

On to `N[C@@H](CC(=O)O)C(=O)O`, for which the 50% lethal dose (LD50) is 7940 mg/kg.

`CCCCN(CCCC)CCOc1ccnc(N)n1`: the LD50 is 1000 mg/kg.

As for `Nc1ccc2nc(C(F)(F)F)[nH]c2c1`, the LD50 is 67 mg/kg.

For the molecule `CCN(CC)C(C)=O`, the LD50 was 1500 mg/kg.

Consider `C=CC(=O)OCCCCCCC`, for which the LD50 is 4500 mg/kg.

On to `CCCSC(=O)Oc1c(C(C)CC)cc([N+](=O)[O-])cc1[N+](=O)[O-]` (stereo unspecified), for which the LD50 was 584 mg/kg.

For the molecule `CCCCCCC1=CC(=O)CC(c2ccc3c(c2)OCO3)C1` (stereo unspecified), the 50% lethal dose (LD50) is 5200 mg/kg.

Regarding `CCCCC[C@H](O)/C=C/[C@@H]1[C@@H](C/C=C\CCCC(=O)O)[C@@H](O)C[C@H]1O`, the LD50 was 1170 mg/kg.

In the case of `O=C(NP(=O)(N1CC1)N1CC1)c1ccccc1`, the 50% lethal dose (LD50) was 50 mg/kg.

For the molecule `O=c1[nH]c2c(Cl)c(Cl)cc(Cl)c2o1`, the LD50 is 500 mg/kg.

Consider `O=C(Nc1ccc([N+](=O)[O-])cc1)OCc1cccnc1`, for which the LD50 was 14 mg/kg.

For `COc1ccc2cc([C@H](C)C(=O)OCCN3CCN(Cc4ccccc4)CC3)ccc2c1`, the LD50 was 1100 mg/kg.

Regarding `FC(F)(F)c1nc2c(Cl)c(Br)c(Br)c(Cl)c2[nH]1`, the LD50 was 3.43 mg/kg.

Take `CC1(C)[C@H](C=C(Cl)Cl)[C@H]1C(=O)OCc1c(F)c(F)c(F)c(F)c1F`: the LD50 is 85 mg/kg.

Turning to `C=CC(=O)OCCSCC`, the LD50 was 2500 mg/kg.

For the molecule `CC(Cl)C(Cl)Cl` (stereo unspecified), the LD50 was 1230 mg/kg.

`CCCCc1ccn[nH]1`: the LD50 is 509 mg/kg.

Turning to `CCN(CC)CCOCc1cc(Br)ccc1OC`, the LD50 is 220 mg/kg.

As for `CCCCCCCCCCCCCCCCCC(=O)OCCCC`, the LD50 is 32000 mg/kg.

Regarding `CCC(C)CO` (stereo unspecified), the LD50 was 4170 mg/kg.

In the case of `Clc1c(Cl)c(Cl)c2c(c1Cl)Oc1ccccc1O2`, the LD50 is 0.8 mg/kg.

As to `CCOC(=S)c1ccc(Cl)cc1`, the LD50 is 995 mg/kg.

As to `O=C1CCOc2ccccc21`, the LD50 is 2650 mg/kg.

Regarding `CCOC(=O)c1c[nH]c2cc(OCC3CC3)c(OCC3CC3)cc2c1=O`, the LD50 was 3000 mg/kg.

On to `Fc1c(Cl)c(F)c2nc(C(F)(F)F)[nH]c2c1Cl`, for which the LD50 is 1.67 mg/kg.

As to `O=CNC(N1CCOCC1)C(Cl)(Cl)Cl` (stereo unspecified), the LD50 was 990 mg/kg.

As for `COC(=O)c1c(Cl)c(Cl)c(C(=O)N(C)OC)c(Cl)c1Cl`, the LD50 was 1170 mg/kg.

Take `CC[C@@H](CO)NC(=O)[C@@H]1C=C2c3cccc4c3c(cn4C)C[C@H]2N(C)C1`: the LD50 was 2100 mg/kg.

With `Oc1c(Cl)cnc(Cl)c1Cl`, the LD50 was 80 mg/kg.

Consider `O=C1CCC(C(=O)NC2CC2c2ccccc2)N1` (stereo unspecified), for which the LD50 was 96 mg/kg.

As for `CCCCCl`, the 50% lethal dose (LD50) is 2670 mg/kg.

On to `O=S(=O)(F)C1CCC(S(=O)(=O)F)C1` (stereo unspecified), for which the LD50 was 7.9 mg/kg.

In the case of `OCC(F)(F)C(F)(F)C(F)(F)CO`, the LD50 is 1780 mg/kg.

Consider `Cc1ccc(N(SC(F)(Cl)Cl)S(=O)(=O)N(C)C)cc1`, for which the LD50 is 1000 mg/kg.

Take `Cc1c[nH]c2ccccc12`: the LD50 is 3450 mg/kg.

Consider `CCC(C)c1cc([N+](=O)[O-])cc([N+](=O)[O-])c1OC(C)=O` (stereo unspecified), for which the LD50 was 60 mg/kg.

`CCCCCC=CCC1CC(=O)OC1=O` (stereo unspecified): the LD50 was 1100 mg/kg.

For `CCCN(N=O)C(N)=O`, the LD50 was 480 mg/kg.

Consider `CCN(CC)C(=O)c1ccccc1C`, for which the LD50 was 1210 mg/kg.

Consider `CCOC(=O)Nc1ccc2c(c1)N(C(=O)CCN1CCOCC1)c1ccccc1CC2`, for which the LD50 was 623 mg/kg.

Take `CC(N)=S`: the LD50 is 301 mg/kg.

As to `O=C(O)C(F)(F)C(F)(F)C(F)(F)C(F)(F)C(F)(F)C(F)(F)C(F)(F)F`, the LD50 is 430 mg/kg.

Turning to `CC(=O)OCC1=CC[C@@H]2C[C@H]1C2(C)C`, the LD50 was 2600 mg/kg.

`NC(=S)NC(N)=S`: the LD50 is 5 mg/kg.

As for `CC(C)=CCCC(C)CCOC=O` (stereo unspecified), the LD50 is 8400 mg/kg.

In the case of `CCOC(=O)CN1CCN(C(=O)C=Cc2cc(OC)c(OC)c(OC)c2)CC1`, the median lethal dose (LD50) is 4190 mg/kg.
